Assay results as given in patent US20220305012A1, “L[…] TREATING SLEEP ISSUES” (EISAI R&D MANAGEMENT CO., LTD., priority 2019, published 2022).

What was measured:
Format in all cases: in vivo, human
[1] = tested on: Subjects Having Insomnia Disorder; test: Example 2: subjective wake after sleep onset (sWASO), sleep diary
Text: As used herein, the term “subjective wake after sleep onset”, abbreviated as “sWASO”, means the sum of estimated minutes of wake during the night after initial sleep onset until the time the subject stopped trying to sleep for the night, operationalized as the time the subject got out of bed for the day. In some embodiments, sWASO is derived from data entered in a subject's Sleep Diary. As used herein, an “improvement of sWASO” means a reduction in sWASO.
(§1) In some embodiments, sleep diaries were used to assess sleep parameters reported by subjects (i.e., subjective assessments) including subjective sleep onset latency (sSOL), subjective sleep efficiency (sSE), subjective WASO (sWASO), and subjective total sleep time (sTST). Subjects were instructed to complete the Sleep Diary developed based on the consensus Sleep Diary as described in Carney et al., “The consensus sleep diary: standardizing prospective sleep self-monitoring,” Sleep 2012; 35(2):287-302. In some embodiments, the Sleep Diary was used to assess the subject's global perception of quality of sleep on the previous night with the following question: “How would you rate the quality of your sleep last night?” Subjects rated the quality of their sleep on a scale from 1 to 9, with 1 being extremely poor and 9 being extremely good. In some embodiments, the Sleep Diary was used to assess subjective ratings of morning sleepiness with the following question: “How alert/sleepy do you feel this morning?” Subjects rated their sleepiness/alertness level on a Likert scale from 1 to 9, with 1 being extremely sleepy and 9 being extremely alert.
sWASO—subjective wake after sleep onset: sum of estimated minutes of wake during the night after initial sleep onset until the time the subject stopped trying to sleep for the night, operationalized as the time the subject got out of bed for the day.
(§2) The treatment period lasted for 31 days. Subjects were randomized in a double-blind manner and received placebo, a tablet containing 5 mg of lemborexant, a tablet containing 10 mg of lemborexant, or a tablet containing 6.25 mg of zolpidem ER.
(§3) Once home, the subject ingested study drug each night prior to bedtime and completed their sleep diary within 1 hour of waketime.

[2] = tested on: Subjects Having Insomnia Disorder; test: Example 2: subjective sleep efficiency (sSE), sleep diary
Text: As used herein, the term “subjective sleep efficiency”, abbreviated as “sSE”, means the proportion of sTST per subjective time spent in bed, calculated as the interval from the time the subject reports attempting to sleep until the time the subject stopped trying to sleep for the night (operationalized as the time the subject got out of bed for the day), and time spent asleep derived from subjective time spent in bed minus sWASO. As used herein, an “improvement of sleep efficiency in Subjective Sleep Efficiency (sSE)” means an increase in sleep efficiency in Subjective Sleep Efficiency (sSE).
as §1
sSE—subjective sleep efficiency: proportion of sTST per subjective time spent in bed, calculated as the interval from the time the subject reports attempting to sleep until the time the subject stopped trying to sleep for the night (operationalized as the time the subject got out of bed for the day), and time spent asleep derived from subjective time in bed minus sWASO.
as §2, §3

[3] = tested on: Subjects Having Insomnia Disorder; test: Example 2: wake after sleep onset (WASO), polysomnography
Method: In some embodiments, a sleep parameter is determined objectively using polysomnography. Polysomnography is the monitoring of multiple electrophysiological parameters during sleep and generally includes measurement of EEG activity, electro-oculographic activity and electromyographic activity, as well as other measurements.
WASO—wake after sleep onset: minutes of wake from the onset of persistent sleep until lights on.
as §2
Within 5 minutes of the subject's mean habitual bedtime, study drug was administered and an overnight polysomnogram recording was initiated. At completion of the recording the following morning (Day 2), postural stability and cognitive performance were assessed. On the Day 2 evening, subjects returned to the clinic and a blood sample was collected before administering study drug, and then study drug was administered within 5 minutes of the subject's mean habitual bedtime. Again, a polysomnogram recording was initiated. The next morning (Day 3), postural stability and cognitive performance were assessed. A blood sample was also collected.
On Day 29, subjects returned to the clinic. Study drug was administered within 5 minutes of the subject's mean habitual bedtime and a polysomnogram recording was conducted. On the following morning (Day 30), postural stability and cognitive performance were assessed. After 1.5 hours of waketime, subjects rated their morning sleepiness level.
On the evening of Day 30, subjects returned to the clinic. A pre-dose blood sample was collected and study drug was again administered within 5 minutes of the subject's mean habitual bedtime. A polysomnogram recording was initiated. The following morning (Day 31), postural stability and cognitive performance were assessed and a blood sample was obtained. The ISI, FSS, EQ-5D-3L and PGI-Insomnia were administered. Blood and urine samples were collected for routine safety assessment. An electrocardiogram was performed, and vital signs and weight were assessed. The eC-SSRS was then administered to the subject. At 1.5 hours after waketime, subjects rated their morning sleepiness level.
Another key secondary endpoint was to determine the change from baseline for mean wake after sleep onset on Days 29 and 30 after administration of 5 mg or 10 mg of lemborexant, compared to placebo.

[4] = First 7 Nights of Treatment, Lemborexant 5 mg
[5] = First 7 Nights of Treatment, Lemborexant 10 mg
[6] = Last 7 Nights of Treatment, Lemborexant 5 mg
[7] = Last 7 Nights of Treatment, Lemborexant 10 mg
[8] = First 7 Nights of Treatment, Zolpidem ER 6.25 mg
[9] = Last 7 Nights of Treatment, Zolpidem ER 6.25 mg
[10] = Days 29/30, Zolpidem ER 6.25 mg

Structure (SMILES): Cc1ncc(OC[C@@]2(c3cccc(F)c3)C[C@H]2C(=O)Nc2ccc(F)cn2)c(C)n1 [Lemborexant, (1R,2S)-2-(((2,4-dimethylpyrimidin-5-yl)oxy)methyl)-2-(3-fluorophenyl)-N-(5-fluoropyridin-2-yl)cyclopropanecarboxamide]
- mean subjective wake after sleep onset ([1]; 10 mg, relative to baseline, placebo and zolpidem treatment groups (Table 20)): reduced
- Subjective Wake After Sleep Onset, Change from Study Baseline, Mean (SD) [1, 4]: −39.33 (55.022)
- Subjective Wake After Sleep Onset, Mean (SD) [1, 4]: 127.37 (78.303)
- Subjective Wake After Sleep Onset, Model-adjusted change from baseline [1, 4]: −39.97
- Subjective Wake After Sleep Onset, Change from Study Baseline, Mean (SD) [1, 5]: −55.06 (66.696)
- Subjective Wake After Sleep Onset, Mean (SD) [1, 5]: 119.78 (74.825)
- Subjective Wake After Sleep Onset, Model-adjusted change from baseline [1, 5]: −53.90
- Subjective Wake After Sleep Onset, Change from Study Baseline, Mean (SD) [1, 6]: −44.51 (58.090)
- Subjective Wake After Sleep Onset, Mean (SD) [1, 6]: 119.30 (81.645)
- Subjective Wake After Sleep Onset, Model-adjusted change from baseline [1, 6]: −47.55
- Subjective Wake After Sleep Onset, Change from Study Baseline, Mean (SD) [1, 7]: −57.96 (72.791)
- Subjective Wake After Sleep Onset, Mean (SD) [1, 7]: 117.08 (83.753)
- Subjective Wake After Sleep Onset, Model-adjusted change from baseline [1, 7]: −56.64
- mean subjective sleep efficiency ([2]; 10 mg, relative to baseline, placebo and zolpidem treatment groups (Table 19)): increased
- Subjective Sleep Efficiency, Change from Study Baseline, Mean (SD) [2, 4]: 10.56 (12.296)
- Subjective Sleep Efficiency, Mean (SD) [2, 4]: 65.96 (18.203)
- Subjective Sleep Efficiency, Model-adjusted change from baseline [2, 4]: 10.74
- Subjective Sleep Efficiency, Change from Study Baseline, Mean (SD) [2, 5]: 13.97 (14.188)
- Subjective Sleep Efficiency, Mean (SD) [2, 5]: 68.10 (18.356)
- Subjective Sleep Efficiency, Model-adjusted change from baseline [2, 5]: 13.81
- Subjective Sleep Efficiency, Change from Study Baseline, Mean (SD) [2, 6]: 12.92 (13.884)
- Subjective Sleep Efficiency, Mean (SD) [2, 6]: 68.19 (19.251)
- Subjective Sleep Efficiency, Model-adjusted change from baseline [2, 6]: 13.29
- Subjective Sleep Efficiency, Change from Study Baseline, Mean (SD) [2, 7]: 16.12 (16.3000)
- Subjective Sleep Efficiency, Mean (SD) [2, 7]: 69.92 (19.098)
- Subjective Sleep Efficiency, Model-adjusted change from baseline [2, 7]: 15.87
- Wake After Sleep Onset, Change from Study Baseline, Mean (SD) ([3]; Days 1/2, Lemborexant 5 mg): −49.96 (39.578)
- Wake After Sleep Onset, Change from Study Baseline, Median ([3]; Days 1/2, Lemborexant 5 mg): −46.75
- Wake After Sleep Onset, Mean (SD) ([3]; Days 1/2, Lemborexant 5 mg): 63.48 (31.484)
- Wake After Sleep Onset, Median ([3]; Days 1/2, Lemborexant 5 mg): 58.38
- Wake After Sleep Onset, Change from Study Baseline, Mean (SD) ([3]; Days 1/2, Lemborexant 10 mg): −59.59
- Wake After Sleep Onset, Change from Study Baseline, Median ([3]; Days 1/2, Lemborexant 10 mg): −54.50
- Wake After Sleep Onset, Mean (SD) ([3]; Days 1/2, Lemborexant 10 mg): 55.23
- Wake After Sleep Onset, Median ([3]; Days 1/2, Lemborexant 10 mg): 48.75
- Wake After Sleep Onset, Change from Study Baseline, LSM treatment difference: Lemborexant-Zolpidem ([3]; Days 29/30, Lemborexant 5 mg): −7.72 (2.876)
- Wake After Sleep Onset, Change from Study Baseline, Mean (SD) ([3]; Days 29/30, Lemborexant 5 mg): −43.89 (39.264)
- Wake After Sleep Onset, Change from Study Baseline, Median ([3]; Days 29/30, Lemborexant 5 mg): −39.50
- Wake After Sleep Onset, Mean (SD) ([3]; Days 29/30, Lemborexant 5 mg): 69.10 (34.533)
- Wake After Sleep Onset, Median ([3]; Days 29/30, Lemborexant 5 mg): 62.63
- Wake After Sleep Onset, Change from Study Baseline, LSM treatment difference: Lemborexant-Zolpidem ([3]; Days 29/30, Lemborexant 10 mg): −9.10
- Wake After Sleep Onset, Change from Study Baseline, Mean (SD) ([3]; Days 29/30, Lemborexant 10 mg): −46.43
- Wake After Sleep Onset, Change from Study Baseline, Median ([3]; Days 29/30, Lemborexant 10 mg): −46.50
- Wake After Sleep Onset, Mean (SD) ([3]; Days 29/30, Lemborexant 10 mg): 68.60
- Wake After Sleep Onset, Median ([3]; Days 29/30, Lemborexant 10 mg): 62.50
- mean wake after sleep onset ([3]; all lemborexant treatment groups, relative to baseline, placebo and zolpidem treatment groups (Table 15)): reduced

Structure (SMILES): Cc1ccc(-c2nc3ccc(C)cn3c2CC(=O)N(C)C)cc1 [Zolpidem ER, zolpidem, reference compound]
- Subjective Wake After Sleep Onset, Change from Study Baseline, Mean (SD) [1, 8]: −48.91 (51.761)
- Subjective Wake After Sleep Onset, Mean (SD) [1, 8]: 124.83 (75.279)
- Subjective Wake After Sleep Onset, Model-adjusted change from baseline [1, 8]: −48.09
- Subjective Wake After Sleep Onset, Change from Study Baseline, Mean (SD) [1, 9]: −63.52 (64.161)
- Subjective Wake After Sleep Onset, Mean (SD) [1, 9]: 109.63 (72.583)
- Subjective Wake After Sleep Onset, Model-adjusted change from baseline [1, 9]: −62.00
- Subjective Sleep Efficiency, Change from Study Baseline, Mean (SD) [2, 8]: 11.96 (12.526)
- Subjective Sleep Efficiency, Mean (SD) [2, 8]: 66.45 (16.419)
- Subjective Sleep Efficiency, Model-adjusted change from baseline [2, 8]: 12.11
- Subjective Sleep Efficiency, Change from Study Baseline, Mean (SD) [2, 9]: 14.83 (15.011)
- Subjective Sleep Efficiency, Mean (SD) [2, 9]: 69.45 (16.925)
- Subjective Sleep Efficiency, Model-adjusted change from baseline [2, 9]: 14.82
- Wake After Sleep Onset, Change from Study Baseline, Mean (SD) ([3]; Days 1/2, Zolpidem ER 6.25 mg): −44.36 (38.074)
- Wake After Sleep Onset, Change from Study Baseline, Median ([3]; Days 1/2, Zolpidem ER 6.25 mg): −44.13
- Wake After Sleep Onset, Mean (SD) ([3]; Days 1/2, Zolpidem ER 6.25 mg): 69.92 (33.517)
- Wake After Sleep Onset, Median ([3]; Days 1/2, Zolpidem ER 6.25 mg): 62.00
- Wake After Sleep Onset, Change from Study Baseline, Mean (SD) [3, 10]: −36.50 (43.406)
- Wake After Sleep Onset, Change from Study Baseline, Median [3, 10]: −34.63
- Wake After Sleep Onset, Mean (SD) [3, 10]: 77.71 (39.932)
- Wake After Sleep Onset, Median [3, 10]: 71.00
